According to paper PMC5218480 (PLoS ONE, 2017):

System: MV-4-11 cells
Test: Gene expression microarray analysis (Affymetrix PrimeView) and GSEA
Assay type: cell-based, human
Design: RFU PODN (11730768_x_at) / Fold change /veh PODN (11730768_x_at) / RFU LINC00158 (11744669_a_at) / Fold change /veh LINC00158 (11744669_a_at) / RFU DUSP10 (11751237_a_at) / Fold change /veh DUSP10 (11751237_a_at) / RFU ID3 (11757404_x_at) / Fold change /veh ID3 (11757404_x_at) / RFU PLEKHG5 (11737974_s_at) / Fold change /veh PLEKHG5 (11737974_s_at) / RFU LRRC4B (11730491_at) / Fold change /veh LRRC4B (11730491_at) / RFU GIMAP4 (11747438_a_at) / Fold change /veh GIMAP4 (11747438_a_at) / RFU KRT8 (11758183_x_at) / Fold change /veh KRT8 (11758183_x_at) / RFU CNN1 (11734310_a_at) / Fold change /veh CNN1 (11734310_a_at) / RFU VPS37D (11726825_at) / Fold change /veh VPS37D (11726825_at) / RFU C10orf10 (11716522_x_at) / Fold change /veh C10orf10 (11716522_x_at) / RFU KIR2DL2 /// KIR2DL4 /// KIR2DL5A /// KIR2DL5B /// KIR2DS1 /// KIR2DS2 /// KIR2DS3 /// KIR2DS4 /// KIR3DL3 /// KIR3DL3 /// KIR3DS1 (11738374_at) / Fold change /veh KIR2DL2 /// KIR2DL4 /// KIR2DL5A /// KIR2DL5B /// KIR2DS1 /// KIR2DS2 /// KIR2DS3 /// KIR2DS4 /// KIR3DL3 /// KIR3DL3 /// KIR3DS1 (11738374_at) / RFU C1QL1 (11718748_at) / Fold change /veh C1QL1 (11718748_at) / RFU TMPRSS4 (11747572_a_at) / Fold change /veh TMPRSS4 (11747572_a_at) / RFU HAMP (11756126_x_at) / Fold change /veh HAMP (11756126_x_at) / RFU RNFT2 (11725882_a_at) / Fold change /veh RNFT2 (11725882_a_at) / RFU NR4A2 (11747474_a_at) / Fold change /veh NR4A2 (11747474_a_at) / RFU ABCC12 (11746883_a_at) / Fold change /veh ABCC12 (11746883_a_at) / RFU TMEM136 (11760407_x_at) / Fold change /veh TMEM136 (11760407_x_at) / RFU CLDN22 /// WWC2 (11732394_at) / Fold change /veh CLDN22 /// WWC2 (11732394_at) / RFU HLA-DPB1 (11760878_x_at) / Fold change /veh HLA-DPB1 (11760878_x_at) / RFU SPINT1 (11716480_a_at) / Fold change /veh SPINT1 (11716480_a_at) / RFU GAP43 (11754022_s_at) / Fold change /veh GAP43 (11754022_s_at) / RFU A4GNT (11735810_at) / Fold change /veh A4GNT (11735810_at) / RFU PRB3 (11715151_x_at) / Fold change /veh PRB3 (11715151_x_at) / RFU TUBB4B (11761932_at) / Fold change /veh TUBB4B (11761932_at) / RFU CAPN14 (11732068_a_at) / Fold change /veh CAPN14 (11732068_a_at) / RFU TMCC2 (11721928_a_at) / Fold change /veh TMCC2 (11721928_a_at) / RFU IRGQ (11745062_a_at) / Fold change /veh IRGQ (11745062_a_at) / RFU FAM174B (11720279_a_at) / Fold change /veh FAM174B (11720279_a_at) / RFU TMPRSS4 (11748680_a_at) / Fold change /veh TMPRSS4 (11748680_a_at) / RFU FAM212B (11763350_a_at) / Fold change /veh FAM212B (11763350_a_at) / RFU PLEKHG5 (11743358_a_at) / Fold change /veh PLEKHG5 (11743358_a_at) / RFU ZSCAN30 (11745921_a_at) / Fold change /veh ZSCAN30 (11745921_a_at) / RFU CMKLR1 (11741424_a_at) / Fold change /veh CMKLR1 (11741424_a_at) / RFU LOC101060620 /// MAPK8IP1 (11723275_at) / Fold change /veh LOC101060620 /// MAPK8IP1 (11723275_at) / RFU SPTSSB (11747773_x_at) / Fold change /veh SPTSSB (11747773_x_at) / RFU PRSS12 (11739890_at) / Fold change /veh PRSS12 (11739890_at) / RFU BIN1 (11741810_x_at) / Fold change /veh BIN1 (11741810_x_at) / RFU WNT11 (11732464_a_at) / Fold change /veh WNT11 (11732464_a_at) / RFU C10orf10 (11716521_a_at) / Fold change /veh C10orf10 (11716521_a_at) / RFU C5orf56 (11738089_at) / Fold change /veh C5orf56 (11738089_at) / RFU CYB561 (11721691_x_at) / Fold change /veh CYB561 (11721691_x_at) / RFU ANKRD19P (11752326_a_at) / Fold change /veh ANKRD19P (11752326_a_at) / RFU OR2T12 /// OR2T33 /// OR2T8 (11738714_s_at) / Fold change /veh OR2T12 /// OR2T33 /// OR2T8 (11738714_s_at) / RFU VCAN (11748164_a_at) / Fold change /veh VCAN (11748164_a_at) / RFU JSRP1 (11732532_at) / Fold change /veh JSRP1 (11732532_at) / RFU KRTAP10-11 (11738290_x_at) / Fold change /veh KRTAP10-11 (11738290_x_at) / RFU MYO3A (11730013_a_at) / Fold change /veh MYO3A (11730013_a_at) / RFU EBF3 (11725865_a_at) / Fold change /veh EBF3 (11725865_a_at) / RFU CAMK2N1 (11719241_x_at) / Fold change /veh CAMK2N1 (11719241_x_at) / RFU C5orf56 (11738088_a_at) / Fold change /veh C5orf56 (11738088_a_at) / RFU OLFML3 (11715873_a_at) / Fold change /veh OLFML3 (11715873_a_at) / RFU LOC100653217 /// NTM (11731650_a_at) / Fold change /veh LOC100653217 /// NTM (11731650_a_at) / RFU MAPK11 (11762145_a_at) / Fold change /veh MAPK11 (11762145_a_at) / RFU FIZ1 (11724087_x_at) / Fold change /veh FIZ1 (11724087_x_at) / RFU OASL (11726364_x_at) / Fold change /veh OASL (11726364_x_at) / RFU SOX15 (11748057_x_at) / Fold change /veh SOX15 (11748057_x_at) / RFU CD79A (11719716_a_at) / Fold change /veh CD79A (11719716_a_at) / RFU HIST1H1D (11736915_at) / Fold change /veh HIST1H1D (11736915_at) / RFU CASKIN2 (11723855_a_at) / Fold change /veh CASKIN2 (11723855_a_at) / RFU LOC730098 (11760151_x_at) / Fold change /veh LOC730098 (11760151_x_at) / RFU OR4N2 (11742367_at) / Fold change /veh OR4N2 (11742367_at) / RFU PRRT2 (11749266_a_at) / Fold change /veh PRRT2 (11749266_a_at) / RFU SNX32 (11753110_a_at) / Fold change /veh SNX32 (11753110_a_at) / RFU CDHR5 (11726645_a_at) / Fold change /veh CDHR5 (11726645_a_at) / RFU RCAN1 (11760418_a_at) / Fold change /veh RCAN1 (11760418_a_at) / RFU FAM167A (11723789_a_at) / Fold change /veh FAM167A (11723789_a_at) / RFU FAM26E (11764081_at) / Fold change /veh FAM26E (11764081_at) / RFU ISYNA1 (11749810_s_at) / Fold change /veh ISYNA1 (11749810_s_at) / RFU ACY1 (11761880_at) / Fold change /veh ACY1 (11761880_at) / RFU 11764098_at / Fold change /veh 11764098_at / RFU SAMD14 (11745864_x_at) / Fold change /veh SAMD14 (11745864_x_at) / RFU NPB (11741838_a_at) / Fold change /veh NPB (11741838_a_at) / RFU TMPRSS6 (11731388_a_at) / Fold change /veh TMPRSS6 (11731388_a_at) / RFU KRTAP10-2 (11738614_at) / Fold change /veh KRTAP10-2 (11738614_at) / RFU ARHGAP8 /// PRR5-ARHGAP8 (11727945_x_at) / Fold change /veh ARHGAP8 /// PRR5-ARHGAP8 (11727945_x_at) / RFU KRTAP5-7 /// NADSYN1 (11734609_at) / Fold change /veh KRTAP5-7 /// NADSYN1 (11734609_at) / RFU RASL12 (11751679_a_at) / Fold change /veh RASL12 (11751679_a_at) / RFU CDKN2B (11736163_a_at) / Fold change /veh CDKN2B (11736163_a_at) / RFU PRF1 (11729649_at) / Fold change /veh PRF1 (11729649_at) / RFU, ZNF638 /// ZNF638-IT1 / Fold change vs veh, ZNF638 /// ZNF638-IT1 / RFU, PANK3 / Fold change vs veh, PANK3 / RFU, SH3YL1 / Fold change vs veh, SH3YL1 / RFU, ZEB2 / Fold change vs veh, ZEB2 / RFU, NRIP1 / Fold change vs veh, NRIP1 / RFU, PTTG1IP / Fold change vs veh, PTTG1IP / RFU, CAPN2 / Fold change vs veh, CAPN2 / RFU, MED14 / Fold change vs veh, MED14 / RFU, SNORA58 / Fold change vs veh, SNORA58 / RFU, C1orf63 / Fold change vs veh, C1orf63 / RFU, LRRFIP1 / Fold change vs veh, LRRFIP1 / RFU, NDUFAF7 / Fold change vs veh, NDUFAF7 / RFU, SLC12A2 / Fold change vs veh, SLC12A2 / RFU, IBTK / Fold change vs veh, IBTK / RFU, ESF1 / Fold change vs veh, ESF1 / Fold change vs veh, TMEM50B / RFU, TAOK1 / Fold change vs veh, TAOK1 / RFU, ACBD3 / Fold change vs veh, ACBD3 / RFU, TMA16 / Fold change vs veh, TMA16 / RFU, RWDD3 / Fold change vs veh, RWDD3 / RFU, BCAT1 / Fold change vs veh, BCAT1 / RFU, EDEM3 / Fold change vs veh, EDEM3 / RFU, TMEM33 / Fold change vs veh, TMEM33 / RFU, WDR75 / Fold change vs veh, WDR75 / RFU, AHCTF1 / Fold change vs veh, AHCTF1 / RFU, TFRC / Fold change vs veh, TFRC / RFU, ZDHHC17 / Fold change vs veh, ZDHHC17 / RFU, NOM1 / Fold change vs veh, NOM1 / RFU, ARL8B / Fold change vs veh, ARL8B / RFU, ZBTB11 / Fold change vs veh, ZBTB11 / RFU, TAMM41 / Fold change vs veh, TAMM41 / RFU, KIAA1704 /// LOC100996395 / Fold change vs veh, KIAA1704 /// LOC100996395 / RFU, ING1 / Fold change vs veh, ING1 / RFU, TRMT61B / Fold change vs veh, TRMT61B / RFU, FUBP3 / Fold change vs veh, FUBP3 / RFU, TP53 / Fold change vs veh, TP53 / RFU, TNKS2 / Fold change vs veh, TNKS2 / RFU, ZFP14 / Fold change vs veh, ZFP14 / RFU, ACTR2 / Fold change vs veh, ACTR2 / RFU, PPP3R1 / Fold change vs veh, PPP3R1 / RFU, PIK3R1 / Fold change vs veh, PIK3R1 / RFU, HNRNPA1 / Fold change vs veh, HNRNPA1 / RFU, RNF170 / Fold change vs veh, RNF170 / RFU, ZNF28 / Fold change vs veh, ZNF28 / RFU, RNGTT / Fold change vs veh, RNGTT / RFU, OGT / Fold change vs veh, OGT / RFU, BRD1 / Fold change vs veh, BRD1 / RFU, MARS / Fold change vs veh, MARS / RFU, ZNF655 / Fold change vs veh, ZNF655 / RFU, FAHD1 / Fold change vs veh, FAHD1 / RFU, BDP1 / Fold change vs veh, BDP1 / RFU, LRRCC1 / Fold change vs veh, LRRCC1 / RFU, ARID1A / Fold change vs veh, ARID1A / RFU, ZNF146 / Fold change vs veh, ZNF146 / RFU, ZNF330 / Fold change vs veh, ZNF330 / RFU, GPN3 / Fold change vs veh, GPN3 / RFU, C9orf123 / Fold change vs veh, C9orf123 / RFU, N4BP2L2 / Fold change vs veh, N4BP2L2 / RFU, ARFIP1 / Fold change vs veh, ARFIP1 / RFU, FAM179B / Fold change vs veh, FAM179B / RFU, BCL10 / Fold change vs veh, BCL10 / RFU, UHRF1BP1L / Fold change vs veh, UHRF1BP1L / RFU, BET1 / Fold change vs veh, BET1 / RFU, CNOT2 / Fold change vs veh, CNOT2 / RFU, ZNF268 / Fold change vs veh, ZNF268 / Fold change vs veh, ZNF507 / RFU, DGCR2 / Fold change vs veh, DGCR2 / RFU, WDSUB1 / Fold change vs veh, WDSUB1 / Fold change vs veh, HSP90B1 /// MIR3652 / RFU, ADSS / Fold change vs veh, ADSS / RFU, GK / Fold change vs veh, GK / RFU, ZNF148 / Fold change vs veh, ZNF148 / RFU, TAF9 / Fold change vs veh, TAF9 / RFU, SLC1A5 / Fold change vs veh, SLC1A5 / RFU, SLMO2 / Fold change vs veh, SLMO2 / RFU, ABCC4 / Fold change vs veh, ABCC4 / RFU, LOC101060439 /// RAP1B / Fold change vs veh, LOC101060439 /// RAP1B / RFU, RFX7 / Fold change vs veh, RFX7 / RFU, GTPBP10 / Fold change vs veh, GTPBP10 / RFU, CNEP1R1 / Fold change vs veh, CNEP1R1 / RFU, BIVM-ERCC5 /// ERCC5 / Fold change vs veh, BIVM-ERCC5 /// ERCC5 / RFU, ILF3 / Fold change vs veh, ILF3 / RFU 11762660_at / Fold change /veh 11762660_at / RFU VCAN (11757783_s_at) / Fold change /veh VCAN (11757783_s_at) / RFU DDX43 (11728927_at) / Fold change /veh DDX43 (11728927_at) / RFU KRT8 (11758188_x_at) / Fold change /veh KRT8 (11758188_x_at) / RFU NKD1 (11759106_at) / Fold change /veh NKD1 (11759106_at) / RFU SRD5A1 (11742802_a_at) / Fold change /veh SRD5A1 (11742802_a_at) / RFU TPSAB1 /// TPSB2 (11721975_s_at) / Fold change /veh TPSAB1 /// TPSB2 (11721975_s_at) / RFU GSTM3 (11746129_a_at) / Fold change /veh GSTM3 (11746129_a_at) / RFU IL23R (11737362_x_at) / Fold change /veh IL23R (11737362_x_at) / RFU TMEM51 (11727254_a_at) / Fold change /veh TMEM51 (11727254_a_at) / RFU PIWIL2 (11732686_x_at) / Fold change /veh PIWIL2 (11732686_x_at) / RFU ORM1 (11744905_x_at) / Fold change /veh ORM1 (11744905_x_at) / RFU CCDC152 (11743942_at) / Fold change /veh CCDC152 (11743942_at) / RFU ECM1 (11717891_a_at) / Fold change /veh ECM1 (11717891_a_at) / RFU IL23R (11748794_a_at) / Fold change /veh IL23R (11748794_a_at) / RFU TNFAIP8L3 (11732012_x_at) / Fold change /veh TNFAIP8L3 (11732012_x_at) / RFU MBOAT4 (11741988_at) / Fold change /veh MBOAT4 (11741988_at) / RFU 11764193_at / Fold change /veh 11764193_at / RFU TMEM53 (11763286_at) / Fold change /veh TMEM53 (11763286_at) / RFU MAGEB2 (11727129_at) / Fold change /veh MAGEB2 (11727129_at) / RFU TMEM200A (11744735_a_at) / Fold change /veh TMEM200A (11744735_a_at) / RFU CCDC152 (11751479_a_at) / Fold change /veh CCDC152 (11751479_a_at) / RFU FAM211A (11726209_a_at) / Fold change /veh FAM211A (11726209_a_at) / RFU RGS16 (11746705_a_at) / Fold change /veh RGS16 (11746705_a_at) / RFU VCAN (11755009_s_at) / Fold change /veh VCAN (11755009_s_at) / RFU RHOB (11743442_s_at) / Fold change /veh RHOB (11743442_s_at) / RFU RGS16 (11720943_a_at) / Fold change /veh RGS16 (11720943_a_at) / RFU RGS16 (11720944_at) / Fold change /veh RGS16 (11720944_at) / RFU, VPS4B / Fold change vs veh, VPS4B / RFU, CREB1 / Fold change vs veh, CREB1 / RFU, DNAJC13 / Fold change vs veh, DNAJC13 / RFU, GNAQ / Fold change vs veh, GNAQ / RFU, CDK5R1 / Fold change vs veh, CDK5R1 / RFU, ZRANB3 / Fold change vs veh, ZRANB3 / RFU, CUL4A / Fold change vs veh, CUL4A / RFU, CCNY / Fold change vs veh, CCNY / RFU, UFL1 / Fold change vs veh, UFL1 / RFU, COG3 / Fold change vs veh, COG3 / RFU, DIAPH2 / Fold change vs veh, DIAPH2 / RFU, SKA2 / Fold change vs veh, SKA2 / RFU, AFF3 / Fold change vs veh, AFF3 / RFU, LMF1 / Fold change vs veh, LMF1 / RFU, IPO11 / Fold change vs veh, IPO11 / RFU, DFFB / Fold change vs veh, DFFB / RFU, FOXP1 / Fold change vs veh, FOXP1 / RFU, CARD8 / Fold change vs veh, CARD8 / RFU, STRN3 / Fold change vs veh, STRN3 / RFU, ADK / Fold change vs veh, ADK / RFU, RASSF2 / Fold change vs veh, RASSF2 / RFU, WIPF1 / Fold change vs veh, WIPF1 / RFU, LARP1B / Fold change vs veh, LARP1B / RFU, RASA1 / Fold change vs veh, RASA1 / RFU, RB1 / Fold change vs veh, RB1 / RFU, PPFIA1 / Fold change vs veh, PPFIA1 / RFU, MAT2A / Fold change vs veh, MAT2A / RFU, CCT5 / Fold change vs veh, CCT5 / RFU, WDR92 / Fold change vs veh, WDR92 / RFU, CUX1 / Fold change vs veh, CUX1 / RFU, TTC7A / Fold change vs veh, TTC7A / RFU, TMEM135 / Fold change vs veh, TMEM135 / RFU, DEPTOR / Fold change vs veh, DEPTOR / RFU, CPM / Fold change vs veh, CPM / RFU, DNAJB6 / Fold change vs veh, DNAJB6 / RFU, CACNA2D3 / Fold change vs veh, CACNA2D3 / RFU, DTX4 / Fold change vs veh, DTX4 / RFU, TFCP2 / Fold change vs veh, TFCP2 / RFU, GMCL1 /// GMCL1P1 / Fold change vs veh, GMCL1 /// GMCL1P1 / RFU, AEBP2 / Fold change vs veh, AEBP2 / RFU, SNHG1 /// SNORD22 /// SNORD25 /// SNORD26 /// SNORD27 /// SNORD28 /// SNORD29 /// SNORD31 / Fold change vs veh, SNHG1 /// SNORD22 /// SNORD25 /// SNORD26 /// SNORD27 /// SNORD28 /// SNORD29 /// SNORD31 / Fold change (Aza/veh), C12orf56 (ProbeSet 11735607_a_at) / Fold change (ACY-1035/veh), C12orf56 (ProbeSet 11735607_a_at) / Fold change (Aza/veh), FGFR1OP (ProbeSet 11751329_s_at) / Fold change (ACY-1035/veh), FGFR1OP (ProbeSet 11751329_s_at) / Fold change (Aza/veh), VPS36 (ProbeSet 11739960_a_at) / Fold change (ACY-1035/veh), VPS36 (ProbeSet 11739960_a_at) / RFU SYPL1 (11715823_x_at) / Fold change /veh SYPL1 (11715823_x_at) / RFU IGFBP7 (11715501_s_at) / Fold change /veh IGFBP7 (11715501_s_at) / RFU REEP3 (11722064_at) / Fold change /veh REEP3 (11722064_at) / RFU IGLL1 (11728026_x_at) / Fold change /veh IGLL1 (11728026_x_at): dose or concentration left out as unconfirmed
Details: MV-4-11 cells, 48 hours

Structure (SMILES): Nc1ncn([C@@H]2O[C@H](CO)[C@@H](O)[C@H]2O)c(=O)n1 [azacitidine]
- Fold change /veh OASL (11726364_x_at): 0.86
